In US20230381157A1, “RIFABUTIN FOR THE TREATMENT OF ACINETOBACTER BAUMANNII” (University of Southern California, priority 2018, published 2023):

Columns and labels:
HEK293T = assay: Specificity: mammalian cell cytotoxicity / inhibition of bacteria growth (CC50/IC50)
[1] = system: A. baumannii AB5075 transposon disruption mutants; assay: microbe, parasite or virus in culture; type: cell-based, Acinetobacter baumannii

CO[C@H]1/C=C/O[C@@]2(C)Oc3c(C)c(O)c4c(c3C2=O)C2=NC3(CCN(CC(C)C)CC3)NC2=C(NC(=O)/C(C)=C\C=C\[C@H](C)[C@H](O)[C@@H](C)[C@@H](O)[C@@H](C)[C@H](OC(C)=O)[C@@H]1C)C4=O [rifabutin]
1961.478: Specificity HEK293T (CC50/IC50) (HEK293T; IC50 vs A. baumannii ATCC 17978, RPMI alone)
6.25 µg/mL: Rifabutin MIC ([1]; AB01495, ABUW_0559, MHII) | Rifabutin MIC ([1]; AB02892, ABUW_1069, MHII) | Rifabutin MIC ([1]; AB05672, ABUW_2165, MHII) | Rifabutin MIC ([1]; AB05757, ABUW_2194, MHII) | Rifabutin MIC ([1]; AB06091, ABUW_2322, MHII)
506006.298: Specificity HEK293T (CC50/IC50) (HEK293T; IC50 vs A. baumannii ATCC 17978, RPMI + 50% serum)
97331.320: Specificity HEK293T (CC50/IC50) (HEK293T; IC50 vs A. baumannii HUMC1, RPMI + 50% serum)
33559.242: Specificity HEK293T (CC50/IC50) (HEK293T; IC50 vs A. baumannii HUMC1, RPMI alone)
1.56 µg/mL: Rifabutin MIC ([1]; AB01188, ABUW_0449 (hypothetical protein), MHII) | Rifabutin MIC ([1]; AB01192, ABUW_0449, MHII) | Rifabutin MIC ([1]; AB02035, ABUW_0745, MHII) | Rifabutin MIC ([1]; AB04576, ABUW_1741 (outer membrane protein assembly factor BamA), MHII) | Rifabutin MIC ([1]; AB05089, ABUW_1933 (NADP-dependent fatty aldehyde dehydrogenase), MHII) | Rifabutin MIC ([1]; AB05348, ABUW_2057 (alcohol dehydrogenase), MHII) | Rifabutin MIC ([1]; AB05361, ABUW_2062 (phospholipase D family protein), MHII) | Rifabutin MIC ([1]; AB05362, ABUW_2062, MHII) | Rifabutin MIC ([1]; AB05480, ABUW_2100, MHII) | Rifabutin MIC ([1]; AB05674, ABUW_2165, RPMI) | Rifabutin MIC ([1]; AB05756, ABUW_2194 (acyl-CoA dehydrogenase), MHII) | Rifabutin MIC ([1]; AB06077, ABUW_2318, MHII)
148.31: Specificity HEK293T (CC50/IC50) (HEK293T; top screen hits, IC50 against A. baumannii HUMC1 in 50% serum)
0.78 µg/mL: Rifabutin MIC ([1]; AB02034, ABUW_0745 (hypothetical protein), MHII)
3.13 µg/mL: Rifabutin MIC ([1]; AB01494, ABUW_0559 (putative phage-related membrane protein), MHII) | Rifabutin MIC ([1]; AB02891, ABUW_1069 (NADH dehydrogenase), MHII) | Rifabutin MIC ([1]; AB04593, ABUW_1750 (HAD-superfamiy hydrolase), MHII) | Rifabutin MIC ([1]; AB04594, ABUW_1750, MHII) | Rifabutin MIC ([1]; AB04749, ABUW_1817 (putative peroxidase(alpha/beta hydrolase)), MHII) | Rifabutin MIC ([1]; AB04750, ABUW_1817, MHII) | Rifabutin MIC ([1]; AB05479, ABUW_2100 (LysR family transcriptional regulator), MHII) | Rifabutin MIC ([1]; AB05672, ABUW_2165, RPMI) | Rifabutin MIC ([1]; AB05673, ABUW_2165, MHII) | Rifabutin MIC ([1]; AB05673, ABUW_2165, RPMI) | Rifabutin MIC ([1]; AB05674, ABUW_2165, MHII) | Rifabutin MIC ([1]; AB05837, ABUW_2228 (TonB-dependent receptor), MHII) | Rifabutin MIC ([1]; AB05838, ABUW_2228, MHII) | Rifabutin MIC ([1]; AB06089, ABUW_2322 (integrase), MHII)
0.05 µg/mL: Rifabutin MIC ([1]; AB00188, disrupted gene aroP, RPMI, listed as RBT) | Rifabutin MIC ([1]; AB00190, disrupted gene aroP, RPMI, listed as RBT) | Rifabutin MIC ([1]; AB00215, disrupted gene tryP, RPMI, listed as RBT) | Rifabutin MIC ([1]; AB00216, disrupted gene tryP, RPMI, listed as RBT) | Rifabutin MIC ([1]; AB01188, ABUW_0449 (hypothetical protein), RPMI) | Rifabutin MIC ([1]; AB01192, ABUW_0449, RPMI) | Rifabutin MIC ([1]; AB01494, ABUW_0559 (putative phage-related membrane protein), RPMI) | Rifabutin MIC ([1]; AB01495, ABUW_0559, RPMI) | Rifabutin MIC ([1]; AB02034, ABUW_0745 (hypothetical protein), RPMI) | Rifabutin MIC ([1]; AB02035, ABUW_0745, RPMI) | Rifabutin MIC ([1]; AB02204, disrupted gene aroP, RPMI, listed as RBT) | Rifabutin MIC ([1]; AB02205, disrupted gene aroP, RPMI, listed as RBT) | Rifabutin MIC ([1]; AB02891, ABUW_1069 (NADH dehydrogenase), RPMI) | Rifabutin MIC ([1]; AB02892, ABUW_1069, RPMI) | Rifabutin MIC ([1]; AB03015, disrupted gene aroP, RPMI, listed as RBT) | Rifabutin MIC ([1]; AB03608, disrupted gene hisJ, RPMI, listed as RBT) | Rifabutin MIC ([1]; AB03612, disrupted gene hisM, RPMI, listed as RBT) | Rifabutin MIC ([1]; AB03616, disrupted gene hisM, RPMI, listed as RBT) | Rifabutin MIC ([1]; AB03618, disrupted gene hisM, RPMI, listed as RBT) | Rifabutin MIC ([1]; AB04576, ABUW_1741 (outer membrane protein assembly factor BamA), RPMI) | Rifabutin MIC ([1]; AB04593, ABUW_1750 (HAD-superfamiy hydrolase), RPMI) | Rifabutin MIC ([1]; AB04594, ABUW_1750, RPMI) | Rifabutin MIC ([1]; AB04749, ABUW_1817 (putative peroxidase(alpha/beta hydrolase)), RPMI) | Rifabutin MIC ([1]; AB04750, ABUW_1817, RPMI) | Rifabutin MIC ([1]; AB5075-UW (parent strain), RPMI, listed as RBT) | Rifabutin MIC ([1]; AB05089, ABUW_1933 (NADP-dependent fatty aldehyde dehydrogenase), RPMI) | Rifabutin MIC ([1]; AB05348, ABUW_2057 (alcohol dehydrogenase), RPMI) | Rifabutin MIC ([1]; AB05361, ABUW_2062 (phospholipase D family protein), RPMI) | Rifabutin MIC ([1]; AB05362, ABUW_2062, RPMI) | Rifabutin MIC ([1]; AB05479, ABUW_2100 (LysR family transcriptional regulator), RPMI) | Rifabutin MIC ([1]; AB05480, ABUW_2100, RPMI) | Rifabutin MIC ([1]; AB05756, ABUW_2194 (acyl-CoA dehydrogenase), RPMI) | Rifabutin MIC ([1]; AB05757, ABUW_2194, RPMI) | Rifabutin MIC ([1]; AB05837, ABUW_2228 (TonB-dependent receptor), RPMI) | Rifabutin MIC ([1]; AB05838, ABUW_2228, RPMI) | Rifabutin MIC ([1]; AB06047, ABUW_2307 (biotin synthase), MHII) | Rifabutin MIC ([1]; AB06047, ABUW_2307 (biotin synthase), RPMI) | Rifabutin MIC ([1]; AB06049, ABUW_2307, MHII) | Rifabutin MIC ([1]; AB06049, ABUW_2307, RPMI) | Rifabutin MIC ([1]; AB06076, ABUW_2318 (cytosine permease), RPMI) | Rifabutin MIC ([1]; AB06077, ABUW_2318, RPMI) | Rifabutin MIC ([1]; AB06089, ABUW_2322 (integrase), RPMI) | Rifabutin MIC ([1]; AB06091, ABUW_2322, RPMI) | Rifabutin MIC ([1]; AB06105, disrupted gene aroP, RPMI, listed as RBT)
